Legend:
Assay type in all cases: in vivo
[1] = tested on: (IL-6 plus IL-6sR)-induced arthritic pain in rat; assay: IL6 Rat: dose response alleviation of (IL-6 plus IL-6sR)-induced arthritic pain (Method Example 1); details: oral dose of 10 mg/kg or greater (1, 3, 10, 30 mg/kg tested) 1 hour before 100 ng hrIL-6 + 300 ng hrIL-6sR; measured 1 hour post injection
Source text: (§1) Animals were fed standard rat chow with water available ad libitum.
(§2) Each data point is the mean of three readings of 5 seconds duration.

[2] = tested on: (IL-6 plus IL-6sR)-induced arthritic pain in rat; assay: IL6 Rat: time course of alleviation of (IL-6 plus IL-6sR)-induced arthritic pain (Method Example 2); details: 10 mg/kg oral 1 hour before 100 ng hrIL-6 + 300 ng hrIL-6sR; Time 1 and 3 hours post injection
Source text: as §1, §2

rat knee joint [3] = assay: (IL-6)-induced joint pain, hind paw weight bearing differential (Demonstration Example 1); details: for change in hind paw weight differential compared to the vehicle control group: male Wistar rats
Protocol: (§3) It should be appreciated that in all of the below examples, unless indicated otherwise, male Wistar rats (175-200 g) were housed in solid bottom isolator cages, 2-4 rats per cage, with corncob bedding on a 12 hour:12 hour light:dark cycle. Animals were fed standard rat chow with water available ad libitum.
It should be appreciated that in all of the below examples, hind paw weight bearing differentials between the paw of the limb having the control joint (in animals administered test compound vehicle only) and the paw of the limb having the contralateral test joint (in control or inducement animals administered test compound vehicle only and in treatment animals administered test compound dissolved in test compound vehicle) were determined using an incapacitance tester, model 2KG (Linton Instrumentation, Norfolk, United Kingdom). The incapacitance tester has a chamber on top with an outwardly sloping front wall that supports a rat's front limbs, and two weight sensing pads, one for each hind paw, that facilitates this determination. Each data point is the mean of three readings of 5 seconds duration. The hind paw weight bearing differentials were expressed in grams and calculated as the [sum of (the weight in grams placed on the control limb minus the weight in grams placed on the contralateral test limb for each animal in the inducement or treatment animal group)] divided by the number of animals in the inducement or treatment animal group. […] All results were statistically analyzed by comparing the average results for an induction or treatment group with the average result for its control group at the same time point using analysis of covariance (“ANCOVA”) followed by the Hochberg's procedure and those with statistical significance had ρ<0.05 unless otherwise noted.
It should also be appreciated that the IL-6 and IL-6sR used as described in all of the below examples was the commercially available recombinant human IL-6 and recombinant human IL-6sR purchased from R&D Systems, Minneapolis, Minn.
It should also be appreciated that prior to injection of hrIL-6, hrIL-6sR, or hrIL-6 plus hrIL-6sR in all of the below examples, rats were anesthetized with 5% volume/volume (“v/v”) isoflurane gas until knocked down and maintained with 2% v/v isoflurane. Rats became fully conscious about 5 minutes after isoflurane administration was discontinued.
Hind-paw weight differentials between the right joint and the left joint of male Wistar rats (150 g) were determined for 30 rats with the incapacitance tester. Rats were then randomly divided into five groups of 6 rats each, a control group and four inducement groups. Rats were anesthetized with 5% v/v isoflurane gas until knocked down and maintained with 2% v/v isoflurane gas. At Time 0, each rat was injected with 50 μL of PBS into a control knee. In addition, each rat in the control group was injected with 50 μL of PBS into the contralateral test knee and each rat in each of the four inducement groups was injected with 50 μL of PBS containing 10 ng, 30 ng, 100 ng, or 300 ng, respectively, of hrIL-6. The injections were done through the patellar ligament into the knee joint space. The isoflurane gas was discontinued. At Times 1, 3, and 6 hours, pain in each rat was characterized by measuring hind paw weight bearing differentials with the incapacitance tester, and the results were statistically analyzed.

rat knee joint [4] = assay: (IL-6)-, (IL-6sR)-, (IL-6 plus IL-6sR)- and (heat inactivated IL-6 plus IL-6sR)-induced joint pain (Demonstration Example 3); details: intra-articular in 50 μL PBS, 1 hour post injection
Protocol: as §3
It should be appreciated that in all of the below examples, hind paw weight bearing differentials between the paw of the limb having the control joint (in animals administered test compound vehicle only) and the paw of the limb having the contralateral test joint (in control or inducement animals administered test compound vehicle only and in treatment animals administered test compound dissolved in test compound vehicle) were determined using an incapacitance tester, model 2KG (Linton Instrumentation, Norfolk, United Kingdom). […] Each data point is the mean of three readings of 5 seconds duration. The hind paw weight bearing differentials were expressed in grams and calculated as the [sum of (the weight in grams placed on the control limb minus the weight in grams placed on the contralateral test limb for each animal in the inducement or treatment animal group)] divided by the number of animals in the inducement or treatment animal group. […]

## CS(=O)(=O)c1ccc(C2=C(c3ccccc3)C(=O)OC2)cc1 [rofecoxib]
[1]
  percent inhibition of a change in hind paw weight distribution, compared to test compound vehicle alone: inhibit pain in a statistically significant manner
[2]
  change in hind paw weight distribution (pain) compared to test compound vehicle alone: reduced pain in a statistically significant manner

## hrIL-6: commercially available recombinant human IL-6 purchased from R&D Systems
Rat knee joint [3]; 10 ng intra-articular in 50 μL PBS, 1, 3, or 6 hours post injection
  change in hind paw weight differential compared to the vehicle control group: did not produce a statistically significant change
Rat knee joint [3]; 30 ng intra-articular in 50 μL PBS, 1 and 3 hours post injection
  change in hind paw weight differential compared to the vehicle control group: statistically significant change
Rat knee joint [3]; 30 ng intra-articular in 50 μL PBS, 6 hours post injection
  change in hind paw weight differential compared to the vehicle control group: non-significant
Rat knee joint [3]; 100 ng intra-articular in 50 μL PBS, 1, 3, and 6 hours post injection
  change in hind paw weight differential compared to the vehicle control group: statistically significant change
Rat knee joint [3]; 300 ng intra-articular in 50 μL PBS, 1, 3, and 6 hours post injection
  change in hind paw weight differential compared to the vehicle control group: statistically significant change
Rat knee joint [3]; hrIL-6 only, rat knee joint
  amount that will induce pain in the joint on intra-articular injection: more than 10 ng
Rat knee joint [4]; 100 ng alone
  induction of pain in the joint (hind paw weight distribution): will induce pain

B1: hrIL-6sR: commercially available recombinant human IL-6sR (interleukin-6 soluble receptor) purchased from R&D Systems (protein, UniProt P08887 20-365, looked up)
extracellular domain: LAPRRCPAQEVARGVLTSLPGDSVTLTCPGVEPEDNATVHWVLRKPAAGSHPSRWAGMGRRLLLRSVQLHDSGNYSCYRAGRPAGTVHLLVDVPPEEPQLSCFRKSPLSNVVCEWGPRSTPSLTTKAVLLVRKFQNSPAEDFQEPCQYSQESQKFSCQLAVPEGDSSFYIVSMCVASSVGSKFSKTQTFQGCGILQPDPPANITVTAVARNPRWLSVTWQDPHSWNSSFYRLRFELRYRAERSKTFTTWMVKDLQHHCVIHDAWSGLRHVVQLRAQEEFGQGEWSEWSPEAMGTPWTESRSPPAENEVSTPMQALTTNKDDDNILFRDSANATSLPVQDSSSVPLP
modifications: extracellular domain
notes: commercially available recombinant human IL-6sR (interleukin-6 soluble receptor) purchased from R&D Systems
Rat knee joint [4]; 300 ng alone
  induction of pain in the joint (hind paw weight distribution): will induce pain
